From PubChem BioAssay AID1347 (Sanford-Burnham Center for Chemical Genomics, 2008)
The source made the active and inactive calls.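 How the source made its calls: active means survival repeatably raised 25 points above the stressor-only control level of 35%, about 60% survival; inactive means the rest.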

system: differentiated CSM14.1, thapsigargin death rescue, ATPlite, 24 h; assay: rescue of neuronal CSM14.1 from thapsigargin, SAR follow-up, cell-based, differentiated CSM14.1, ATP luminescence (AID 1347); conditions: at 25 µM; active compounds read high

Compound	survival
COc1ccc(C2CC(=O)C3=C(C2)Nc2ccccc2NC3c2cccc(Br)c2)cc1OC (stereo unspecified)	63%
CSc1ccc(C2Nc3ccccc3NC3=C2C(=O)CC(c2ccccc2)C3)cc1 (stereo unspecified)	65%
CCCOc1ccc(C2Nc3ccccc3NC3=C2C(=O)CC(c2ccc(OC)c(OC)c2)C3)cc1 (stereo unspecified)	68%
O=C1CC(c2ccccc2)CC2=C1C(c1c(F)cccc1Cl)Nc1ccccc1N2 (stereo unspecified)	10% (inactive)
CCOc1cccc(C2Nc3ccccc3NC3=C2C(=O)CC(c2ccc(OC)cc2)C3)c1 (stereo unspecified)	64%
COc1ccc(C2CC(=O)C3=C(C2)Nc2ccccc2NC3c2cccc(C(F)(F)F)c2)cc1OC (stereo unspecified)	65%
CC1(C)CC(=O)C2=C(C1)Nc1ccccc1NC2c1ccc(-c2ccccc2)cc1 (stereo unspecified)	47%
COc1ccc(C2CC(=O)C3=C(C2)Nc2ccccc2NC3c2ccccc2C(F)(F)F)cc1OC (stereo unspecified)	68%
COc1ccc(C2CC(=O)C3=C(C2)Nc2ccccc2NC3c2cc(C)ccc2C)cc1 (stereo unspecified)	69%
COc1ccc(C2CC(=O)C3=C(C2)Nc2ccccc2NC3c2cccc(Oc3ccccc3)c2)cc1OC (stereo unspecified)	66%
CCOc1cc(C2Nc3ccccc3NC3=C2C(=O)CC(c2ccc(OC)cc2)C3)cc(Cl)c1O (stereo unspecified)	20% (inactive)
